pIC50: −log10 of the molar value. Bounds are passed on as bounds.

One may read the pIC50 as the IC50 on a negative log10 scale, so that one unit is a factor of ten.

In the test the target is Wild type FGFR2 (Homo sapiens (Human), UniProt P21802). In words: FGFR2 kinase assay (fluorescence-based microfluidic mobility shift assay). The settings on record: wild type FGFR2 0.06 nM, 100 μM ATP, 80 minutes at room temperature; class symbols. The test is classed as biochemical.
Sequence of Wild type FGFR2 (P21802 22-821): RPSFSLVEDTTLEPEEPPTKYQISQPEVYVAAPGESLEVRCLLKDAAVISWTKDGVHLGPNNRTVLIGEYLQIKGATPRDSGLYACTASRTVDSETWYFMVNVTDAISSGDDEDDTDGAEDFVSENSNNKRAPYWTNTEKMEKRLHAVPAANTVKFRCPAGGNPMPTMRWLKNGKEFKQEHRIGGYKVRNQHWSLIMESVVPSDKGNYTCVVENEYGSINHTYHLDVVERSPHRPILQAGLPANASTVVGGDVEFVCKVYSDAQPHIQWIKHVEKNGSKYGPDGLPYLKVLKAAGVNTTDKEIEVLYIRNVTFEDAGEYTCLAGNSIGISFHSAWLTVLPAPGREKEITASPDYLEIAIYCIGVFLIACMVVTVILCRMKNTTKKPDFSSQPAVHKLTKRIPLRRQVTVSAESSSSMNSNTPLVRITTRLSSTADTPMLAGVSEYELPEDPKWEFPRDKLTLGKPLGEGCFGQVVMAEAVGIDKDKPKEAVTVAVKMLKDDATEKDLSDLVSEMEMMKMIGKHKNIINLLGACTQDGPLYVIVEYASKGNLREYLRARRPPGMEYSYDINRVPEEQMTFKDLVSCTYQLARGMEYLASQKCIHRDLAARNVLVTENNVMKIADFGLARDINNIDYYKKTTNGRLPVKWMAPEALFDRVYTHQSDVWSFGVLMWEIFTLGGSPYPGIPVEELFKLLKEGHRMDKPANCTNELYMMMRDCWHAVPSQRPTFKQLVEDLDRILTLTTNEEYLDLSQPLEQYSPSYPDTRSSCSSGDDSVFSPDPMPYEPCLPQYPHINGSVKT
As to `C=CC(=O)N1C[C@@H](n2nc(C#Cc3ccn4ncnc4c3)c(C(N)=O)c2NC)C[C@@H]1COC` [Example 107, 1-[(3S,5R)-5-(Methoxymethyl)-1-(prop-2-enoyl)pyrrolidin-3-yl]-5-(methylamino)-3-(2-[[1,2,4]triazolo[1,5-c]pyridin-7-yl]ethynyl)pyrazole-4-carboxamide], the pIC50 is 6.00 to 7.00.
With `C=CC(=O)N1C[C@@H](n2nc(C#Cc3ccc4ocnc4c3)c(C(N)=O)c2NC)C[C@@H]1COC` [Example 108, 3-[2-(1,3-Benzoxazol-5-yl)ethynyl]-1-[(3S,5R)-5-(methoxymethyl)-1-(prop-2-enoyl)pyrrolidin-3-yl]-5-(methylamino)pyrazole-4-carboxamide] the figure was ≥ 7.00.
With `C=CC(=O)N1C[C@@H](n2nc(C#Cc3c(F)cc4c(ncn4CC)c3F)c(C(N)=O)c2NCC2CC2)C[C@@H]1COC` [Example 109, 5-[(Cyclopropylmethyl)amino]-3-[2-(1-ethyl-4,6-difluoro-1,3-benzodiazol-5-yl)ethynyl]-1-[(3S,5R)-5-(methoxymethyl)-1-(prop-2-enoyl)pyrrolidin-3-yl]pyrazole-4-carboxamide] the figure was ≥ 7.00; with `C=CC(=O)N1C[C@@H](n2nc(C#Cc3c(F)cc4c(ncn4CC)c3F)c(C(N)=O)c2NCCCN2CCOCC2)C[C@@H]1COC` [Example 111, 3-[2-(1-Ethyl-4,6-difluoro-1,3-benzodiazol-5-yl)ethynyl]-1-[(3S,5R)-5-(methoxymethyl)-1-(prop-2-enoyl)pyrrolidin-3-yl]-5-[[3-(morpholin-4-yl)propyl]amino]pyrazole-4-carboxamide], ≥ 7.00.
With `C=CC(=O)N1CC[C@H](n2nc(C#Cc3c(F)cc4c(ncn4CC)c3F)c(C(N)=O)c2NCCN2CCOCC2)C1` [Example 112, 3-[2-(1-Ethyl-4,6-difluoro-1,3-benzodiazol-5-yl)ethynyl]-5-[[2-(morpholin-4-yl)ethyl]amino]-1-[(3S)-1-(prop-2-enoyl)pyrrolidin-3-yl]pyrazole-4-carboxamide] the figure was ≥ 7.00; with `C=CC(=O)N1C[C@@H](n2nc(C#Cc3cc4ncn(C)c4c(F)c3Cl)c(C(N)=O)c2NC)C[C@@H]1COC` [Example 113, 3-[2-(6-chloro-7-fluoro-1-methyl-1,3-benzodiazol-5-yl)ethynyl]-1-[(3S,5R)-5-(methoxymethyl)-1-(prop-2-enoyl)pyrrolidin-3-yl]-5-(methylamino)pyrazole-4-carboxamide], ≥ 7.00.
As for `C=CC(=O)N1C[C@@H](n2nc(C#Cc3nc4ccccc4o3)c(C(N)=O)c2NC)C[C@@H]1COC` [Example 114, 3-[2-(1,3-Benzoxazol-2-yl)ethynyl]-1-[(3S,5R)-5-(methoxymethyl)-1-(prop-2-enoyl)pyrrolidin-3-yl]-5-(methylamino)pyrazole-4-carboxamide], the negative-log IC50 (pIC50) was ≥ 7.00.
The same measure for `C=CC(=O)N1C[C@@H](n2nc(C#Cc3cc4ncoc4cc3F)c(C(N)=O)c2NC)C[C@@H]1COC` [Example 115, 3-[2-(6-Fluoro-1,3-benzoxazol-5-yl)ethynyl]-1-[(3S,5R)-5-(methoxymethyl)-1-(prop-2-enoyl)pyrrolidin-3-yl]-5-(methylamino)pyrazole-4-carboxamide]: ≥ 7.00.
The same measure for `C=CC(=O)N1C[C@@H](n2nc(C#Cc3c(F)cc4c(ncn4CC)c3F)c(C(N)=O)c2NCCO)C[C@@H]1COC` [Example 116, 3-[2-(1-Ethyl-4,6-difluoro-1,3-benzodiazol-5-yl)ethynyl]-5-[(2-hydroxyethyl)amino]-1-[(3S,5R)-5-(methoxymethyl)-1-(prop-2-enoyl)pyrrolidin-3-yl]pyrazole-4-carboxamide]: ≥ 7.00.
The same measure for `C=CC(=O)N1C[C@@H](n2nc(C#Cc3c(F)cc4c(ncn4CC)c3F)c(C(N)=O)c2NCCOC)C[C@@H]1COC` [Example 117, 3-[2-(1-Ethyl-4,6-difluoro-1,3-benzodiazol-5-yl)ethynyl]-5-[(2-methoxyethyl)amino]-1-[(3S,5R)-5-(methoxymethyl)-1-(prop-2-enoyl)pyrrolidin-3-yl]pyrazole-4-carboxamide]: ≥ 7.00; for `C=CC(=O)N1CC[C@H](n2nc(C#Cc3c(F)cc4c(ncn4CC)c3F)c(C(N)=O)c2NCC2CC2)C1` [Example 118, 5-[(Cyclopropylmethyl)amino]-3-[2-(1-ethyl-4,6-difluoro-1,3-benzodiazol-5-yl)ethynyl]-1-[(3S)-1-(prop-2-enoyl)pyrrolidin-3-yl]pyrazole-4-carboxamide]: ≥ 7.00; for `C=CC(=O)N1CC[C@H](n2nc(C#Cc3c(F)cc4c(ncn4CC)c3F)c(C(N)=O)c2NCCOC)C1` [Example 119, 3-[2-(1-Ethyl-4,6-difluoro-1,3-benzodiazol-5-yl)ethynyl]-5-[(2-methoxyethyl)amino]-1-[(3S)-1-(prop-2-enoyl)pyrrolidin-3-yl]pyrazole-4-carboxamide]: ≥ 7.00.
Consider `C=CC(=O)N1CC[C@H](n2nc(C#Cc3c(F)cc4c(ncn4CC)c3F)c(C(N)=O)c2NCCCN2CCOCC2)C1` [Example 120, 3-[2-(1-ethyl-4,6-difluoro-1,3-benzodiazol-5-yl)ethynyl]-5-[[3-(morpholin-4-yl)propyl]amino]-1-[(3S)-1-(prop-2-enoyl)pyrrolidin-3-yl]pyrazole-4-carboxamide], for which the pIC50 was ≥ 7.00.
Regarding `C=CC(=O)N1C[C@@H](n2cc(C#Cc3cc(F)c4c(c3)ncn4C)c(C(N)=O)c2NC)C[C@@H]1COC` [Example 121, 1-((3S,5S)-1-Acryloyl-5-(methoxymethy)pyrrolidin-3-yl)-3-((7-fluoro-1-methyl-1H-benzo[d]imidazol-5-yl)ethynyl)-5-(methylamino)-1H-pyrazole-4-carboxamide], the negative logarithm of the IC50 (pIC50) was ≥ 7.00.
`C=CC(=O)N1C[C@@H](n2nc(C#Cc3cn4ncnc4cc3F)c(C(N)=O)c2NC)C[C@@H]1COC` [Example 122, 3-(2-[7-Fluoro-[1,2,4]triazolo[1,5-a]pyridin-6-yl]ethynyl)-1-[(3S,5R)-5-(methoxymethyl)-1-(prop-2-enoyl)pyrrolidin-3-yl]-5-(methylamino)pyrazole-4-carboxamide]: the pIC50 was 6.00 to 7.00.
The same measure for `C=CC(=O)N1CC[C@H](n2nc(C#Cc3c(F)cc4c(ncn4CC)c3F)c(C(N)=O)c2NCCO)C1` [Example 123, 3-[2-(1-Ethyl-4,6-difluoro-1,3-benzodiazol-5-yl)ethynyl]-5-[(2-hydroxyethyl)amino]-1-[(3S)-1-(prop-2-enoyl)pyrrolidin-3-yl]pyrazole-4-carboxamide]: ≥ 7.00; for `C=CC(=O)N1C[C@@H](n2nc(C#Cc3cc4ncn(CC)c4c(F)c3F)c(C(N)=O)c2NC)C[C@@H]1COC` [Example 125, 3-[2-(1-Ethyl-6,7-difluoro-1,3-benzodiazol-5-yl)ethynyl]-1-[(3S,5R)-5-(methoxymethyl)-1-(prop-2-enoyl)pyrrolidin-3-yl]-5-(methylamino)pyrazole-4-carboxamide]: ≥ 7.00.
The same measure for `C=CC(=O)N1C[C@@H](n2nc(C#Cc3cc4ncn(CC)c4c(F)c3Cl)c(C(N)=O)c2NC)C[C@@H]1COC` [Example 126, 3-[2-(6-Chloro-1-ethyl-7-fluoro-1,3-benzodiazol-5-yl)ethynyl]-1-[(3S,5R)-5-(methoxymethyl)-1-(prop-2-enoyl)pyrrolidin-3-yl]-5-(methylamino)pyrazole-4-carboxamide]: ≥ 7.00; for `C=CC(=O)N1C[C@@H](n2nc(C#Cc3cc4nc(C)n(C)c4c(F)c3F)c(C(N)=O)c2NC)C[C@@H]1COC` [Example 127, 3-[2-(6,7-Difluoro-1,2-dimethyl-1,3-benzodiazol-5-yl)ethynyl]-1-[(3S,5R)-5-(methoxymethyl)-1-(prop-2-enoyl)pyrrolidin-3-yl]-5-(methylamino) pyrazole-4-carboxamide]: ≥ 7.00.
The same measure for `C=CC(=O)N1C[C@@H](n2nc(C#Cc3cc4nc(C)n(C)c4c(F)c3Cl)c(C(N)=O)c2NC)C[C@@H]1COC` [Example 128, 3-[2-(6-Chloro-7-fluoro-1,2-dimethyl-1,3-benzodiazol-5-yl)ethynyl]-1-[(3S,5R)-5-(methoxymethyl)-1-(prop-2-enoyl)pyrrolidin-3-yl]-5-(methylamino)pyrazole-4-carboxamide]: ≥ 7.00.
As for `C=C(F)C(=O)N1C[C@@H](n2nc(C#Cc3cc4ncn(CC)c4cc3Cl)c(C(N)=O)c2NC)C[C@@H]1COC` [Example 129, 3-[2-(6-Chloro-1-ethyl-1,3-benzodiazol-5-yl)ethynyl]-1-[(3S,5R)-1-(2-fluoroprop-2-enoyl)-5-(methoxymethyl)pyrrolidin-3-yl]-5-(methylamino)pyrazole-4-carboxamide], the negative-log IC50 (pIC50) is 6.00 to 7.00.
The same measure for `C=CC(=O)N1C[C@@H](n2nc(C#Cc3cc4ncnn4cc3F)c(C(N)=O)c2NC)C[C@@H]1COC` [Example 130, 3-(2-[6-Fluoro-[1,2,4]triazolo[1,5-a]pyridin-7-yl]-ethynyl)-1-[(3S,5R)-5-(methoxymethyl)-1-(prop-2-enoyl)pyrrolidin-3-yl]-5-(methylamino)pyrazole-4-carboxamide]: ≥ 7.00; for `C=CC(=O)N1C[C@@H](n2nc(C#Cc3cc4nccn4cc3F)c(C(N)=O)c2NC)C[C@@H]1COC` [Example 132, 1-((3S,5R)-1-Acryloyl-5-(methoxymethyl)pyrrolidin-3-yl)-3-((6-fluoroimidazo[1,2-a]pyridin-7-yl)ethynyl)-5-(methylamino)-1H-pyrazole-4-carboxamide]: ≥ 7.00.
The same measure for `C=CC(=O)N1C[C@@H](n2nc(C#Cc3c(Cl)cc4c(nc(C)n4C)c3F)c(C(N)=O)c2NC)C[C@@H]1COC` [Example 133, 3-[2-(6-Chloro-4-fluoro-1,2-dimethyl-1,3-benzodiazol-5-yl)ethynyl]-1-[(3S,5R)-5-(methoxymethyl)-1-(prop-2-enoyl)pyrrolidin-3-yl]-5-(methylamino)pyrazole-4-carboxamide]: ≥ 7.00; for `C=CC(=O)N1CC[C@H](n2nc(C#Cc3cc4ncn(C5CC5)c4cc3F)c(C(N)=O)c2NC)C1` [Example 136, 3-[2-(1-Cyclopropyl-6-fluoro-1,3-benzodiazol-5-yl)ethynyl]-5-(methylamino)-1-[(3S)-1-(prop-2-enoyl)pyrrolidin-3-yl]pyrazole-4-carboxamide]: ≥ 7.00.
